Assay results published in PMC6961810 (2019).

Tests used:
[1] = system: wt-mt (RNA, rRNA) GGCGUCACCCUCCUC/GAGGAGACAAGUCGCC; assay: fluorescence titration; settings: 150 mM NaCl, 3 mM Na2EDTA; apparent; 10 mM HEPES pH 7.4; 1 μM RNA
[2] = system: mut-mt (RNA, rRNA) GGCGUCACCCUCCUC/GAGGAGGCAAGUCGCC; assay: fluorescence titration; settings: 150 mM NaCl, 3 mM Na2EDTA; apparent; 10 mM HEPES pH 7.4; 1 μM RNA

SMILES | Kd [1] | Kd [2]
CCC[C@H]1[C@H](O)[C@@H](N)[C@@H](O[C@H]2[C@H](O[C@@H]3O[C@H](CO)[C@@H](O[C@H]4O[C@@H](CN)[C@@H](O)[C@H](O)[C@H]4N)[C@H]3O)[C@@H](O)[C@H](N)C[C@@H]2N)O[C@@H]1CO | 26.9 ± 4.7 µM | 5.8 ± 1.8 µM
CCO[C@H]1[C@H](O)[C@@H](N)[C@@H](O[C@H]2[C@H](O[C@@H]3O[C@H](CO)[C@@H](O[C@H]4O[C@@H](CN)[C@@H](O)[C@H](O)[C@H]4N)[C@H]3O)[C@@H](O)[C@H](N)C[C@@H]2N)O[C@@H]1CO | 12.8 ± 2.8 µM | 8.6 ± 2.1 µM
NC[C@@H]1O[C@H](O[C@H]2[C@@H](O)[C@H](O[C@@H]3[C@@H](O)[C@H](N)C[C@H](N)[C@H]3O[C@H]3O[C@H](CN)[C@@H](O)[C@H](O)[C@H]3N)O[C@@H]2CO)[C@H](N)[C@@H](O)[C@@H]1O | 1.1 ± 0.5 µM | 0.1 ± 0.02 µM
NC[C@@H]1O[C@H](O[C@H]2[C@@H](O)[C@H](O[C@@H]3[C@@H](O)[C@H](N)C[C@H](N)[C@H]3O[C@H]3O[C@H](CO)[C@@H](O)[C@H](O)[C@H]3N)O[C@@H]2CO)[C@H](N)[C@@H](O)[C@@H]1O | 6.5 ± 0.9 µM | 2.8 ± 0.5 µM
